System: HCC1428 LTED cells
Experiment: HCC1428 Long Term Estrogen Deprived (HCC1428 LTED) Xenograft Efficacy Study
Format: in vivo, NSG mice
Conditions: 25 mg/kg once daily p.o., after 28 days of dosing
Experimental: HCC1428 Long Term Estrogen Deprived (HCC1428 LTED) Xenograft Efficacy Study
After a suitable period of cell culture, HCC1428 LTED cells (1×10^6) were implanted subcutaneously in the hind flank of female immuno-compromised NSG mice (Jackson Labs, USA) that had undergone overectomy. Tumours were measured twice weekly and changes in tumour volume and growth inhibition were determined by bilateral Vernier calliper measurement (length×width) where length was taken to be the longest diameter across the tumour and width the corresponding perpendicular. Tumour volume was calculated using the formula (length×width)×√(length×width)×(π/6). Tumours were measured once weekly after cell implantation until the average size reached 150 mm^3 at which point the mice were placed into randomised test groups, each group containing 10 mice. Treatment with compounds began the day after (day 62 in this study) and once weekly tumour measurement continued. […] Another group of animals was dosed with vehicle p.o. to act as a control.

C[C@@H]1Cc2c([nH]c3ccccc23)[C@@H](c2c(F)cc(/C=C/C(=O)O)cc2F)N1CC(C)(C)F [Example 1, (E)-3-(3,5-Difluoro-4-((1R,3R)-2-(2-fluoro-2-methylpropyl)-3-methyl-2,3,4,9-tetrahydro-1H-pyrido[3,4-b]indol-1-yl)phenyl)acrylic acid]
decrease in tumour size (geometric mean values, control grew by 220 mm^3): 46 mm^3
inhibition of tumour growth (P<0.001 by unpaired t-test): 121%

Source: patent publication US10130617B2, “Chemical compounds” (AstraZeneca AB, priority 2013, dated 2018)
